BindingDB's records for doi:10.1111/cbdd.12356 (Peking University, 2014)

These compounds were tested against T1, Polyunsaturated fatty acid 5-lipoxygenase (Homo sapiens, UniProt P09917) (assay: Cell-Free Assay).
T1 sequence (P09917 whole entry): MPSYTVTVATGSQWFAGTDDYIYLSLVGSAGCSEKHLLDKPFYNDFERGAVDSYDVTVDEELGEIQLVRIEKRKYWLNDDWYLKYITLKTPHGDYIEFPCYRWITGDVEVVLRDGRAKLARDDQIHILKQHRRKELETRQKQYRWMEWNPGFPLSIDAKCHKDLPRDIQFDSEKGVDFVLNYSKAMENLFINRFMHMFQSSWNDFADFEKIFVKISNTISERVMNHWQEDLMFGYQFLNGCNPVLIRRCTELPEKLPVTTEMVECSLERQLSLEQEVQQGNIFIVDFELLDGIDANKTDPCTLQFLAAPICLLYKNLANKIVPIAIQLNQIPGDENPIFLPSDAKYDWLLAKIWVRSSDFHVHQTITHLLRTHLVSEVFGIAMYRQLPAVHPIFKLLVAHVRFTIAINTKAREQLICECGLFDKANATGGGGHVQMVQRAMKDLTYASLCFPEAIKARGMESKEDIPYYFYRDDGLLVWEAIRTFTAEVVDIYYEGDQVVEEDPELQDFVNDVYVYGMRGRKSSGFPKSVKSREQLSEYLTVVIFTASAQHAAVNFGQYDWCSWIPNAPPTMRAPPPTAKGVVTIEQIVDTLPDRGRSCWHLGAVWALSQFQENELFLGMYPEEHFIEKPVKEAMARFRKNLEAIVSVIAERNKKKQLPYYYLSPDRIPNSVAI
Procedure: The enzyme activity of 5-LOX was determined fluorescence spectrophotometrically by oxidation of the substrate H2DCFDA to the highly fluorescent 2',7'-dichlorofluorescein product during 5-LOX s catalytic reaction . The reactions were initiated by the addition of AA as substrate and then monitored by excitation at 500 nm and emission at 520 nm utilizing a multiwall fluorometer. Fluorescence signals were recorded for 5 min with a kinetics mode program. Inhibition activities were measured as described previously.
`O=C(c1[nH]nc2c1CSc1sc(Br)cc1-2)N1CCN(Cc2ccccc2)CC1` [5-(4-benzylpiperazine-1-carbonyl)-11-bromo-8,10-dithia-3,4-diazatricyclo[7.3.0.0 ,⁶]dodeca-1(9),2,5,11-tetraene (7i)] was tested, and the IC50 was 21 µM. For `O=C(c1[nH]nc2c1CSc1sc(Br)cc1-2)N1CCN(c2ccc(OC(F)(F)F)cc2)CC1` [11-bromo-5-{4-[4-(trifluoromethoxy)phenyl]piperazine-1-carbonyl}-8,10-dithia-3,4-diazatricyclo[7.3.0.0 ,⁶]dodeca-1(9),2,5,11-tetraene (7e)], the IC50 was 86 µM. `O=C(c1[nH]nc2c1CSc1sc(Br)cc1-2)N1CCN(c2ccccc2F)CC1` [11-bromo-5-[4-(2-fluorophenyl)piperazine-1-carbonyl]-8,10-dithia-3,4-diazatricyclo[7.3.0.0,6]dodeca-1(9),2,5,11-tetraene (7c)] showed an IC50 of 5.7 µM.
